Test results from patent publication US11426420B2, “Inhibitors of short-chain dehydrogenase activity for treating coronary disorders” (CASE WESTERN RESERVE UNIVERSITY, priority 2017, dated 2022).

How the values were obtained:
[1] = system: doxorubicin induced cardiomyopathy; test: doxorubicin induced cardiomyopathy in mice, one cycle (Set A), echocardiography; type: in vivo, male C57bl6J mice
Experimental: FIG. 1 illustrates schematically the design of a study in which male C57bl6J mice received 15 mpk cumulative dose of doxorubicin in 7 doses of 2.15 mpk administered daily over study days 1-7. A 15-PGDH inhibitor, (+) SW033291, was administered by oral gavage at a dose of 25 mpk twice daily over study days 1-14, as a solution in a vehicle of 10% ethanol and 90% soybean oil. Cardiac ejection fraction was determined by echocardiography on study days 14 and 28.
FIG. 2 illustrates a graph showing cardiac ejection fraction at study day 1, at the start of the experiment, at study day 14 and at study day 28. Black bars show measurement in control mice receiving either oral saline or oral vehicle. Blue bars show results in doxorubicin treated mice receiving oral vehicle. Red bars show results in doxorubicin treated mice also receiving (+) SW033291. Doxorubicin treated mice receiving oral vehicle (blue bars) show a 10% decrease in ejection fraction on day 14 and day 28 as compared to non-doxorubicin treated control mice receiving vehicle only for 14 days. In contrast, mice treated with both doxorubicin and (+) SW033291 only a 2% (day 14) or 1.5% (day 28) decrease in ejection fraction. The difference in ejection fraction in doxorubicin treated mice receiving or not receiving (+) SW033291 was statiscally significant (P<0.05) on both days 14 and 28.

[2] = system: doxorubicin induced cardiomyopathy; test: doxorubicin induced cardiomyopathy in mice, 2 consecutive cycles of doxorubicin (Set B); type: in vivo
[3] = target: T1, cardiac 15-PGDH (Mus musculus, UniProt Q8VCC1); test: cardiac 15-PGDH activity and cardiac PGE2 after oral dosing of mice; type: in vivo
T1 construct: from tissue; host or cells: mouse heart (male C57bl6J mice are named for the study design)
T1 sequence (Q8VCC1 1-269): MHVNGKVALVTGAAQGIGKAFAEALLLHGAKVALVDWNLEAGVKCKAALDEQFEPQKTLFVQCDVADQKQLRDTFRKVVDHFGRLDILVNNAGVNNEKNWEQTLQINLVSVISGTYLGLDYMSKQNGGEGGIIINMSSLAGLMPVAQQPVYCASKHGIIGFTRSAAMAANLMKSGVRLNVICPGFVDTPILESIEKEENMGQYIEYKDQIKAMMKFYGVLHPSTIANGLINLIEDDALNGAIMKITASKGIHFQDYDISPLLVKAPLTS

[4] = system: cardiac myocytes; test: DNA damage in cardiac myocytes, gamma-H2AX immunostaining; type: in vivo; conditions: doxorubicin treated mice
[5] = system: PGE2 production by cell lines; test: PGE2 production by cell lines; type: cell-based
[6] = chemical stability in aqueous solutions; type: physicochemical; conditions: over broad pH range
[7] = stability on incubation with hepatocyte extracts; type: in vitro ADME
[8] = stability on incubation with hepatocyte cell lines; type: in vitro ADME
[9] = system: mice; test: toxicity after IP injection into mice
[10] = target: T2, recombinant 15-PGDH (Homo sapiens, UniProt P15428); test: inhibition of recombinant 15-PGDH; type: biochemical
T2 sequence (P15428 1-266): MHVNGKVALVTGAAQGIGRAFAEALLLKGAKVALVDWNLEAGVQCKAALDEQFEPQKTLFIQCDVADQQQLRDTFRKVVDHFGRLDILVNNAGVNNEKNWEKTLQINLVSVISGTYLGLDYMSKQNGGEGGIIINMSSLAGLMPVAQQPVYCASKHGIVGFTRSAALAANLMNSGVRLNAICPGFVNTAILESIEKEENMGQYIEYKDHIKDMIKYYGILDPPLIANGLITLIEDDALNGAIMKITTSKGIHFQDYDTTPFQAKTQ

[11] = stability on incubation with mouse liver extracts; type: in vitro ADME
[12] = stability on incubation with rat liver extracts; type: in vitro ADME
[13] = stability on incubation with human liver extracts; type: in vitro ADME
[14] = day 42, after two cycles of doxorubicin, versus vehicle control

CCCC[S+]([O-])c1sc2nc(-c3cccs3)cc(-c3ccccc3)c2c1N (single isomer, unassigned; (+)) [(+) SW033291]
ejection fraction (EF %), extended follow-up ([1]; Set A, follow-up to day 56): maintenance of improvement in ejection fraction
decrease in ejection fraction ([1]; day 14, doxorubicin treated mice, 25 mpk oral gavage twice daily days 1-14): 2%
decrease in ejection fraction ([1]; day 28, doxorubicin treated mice, 25 mpk oral gavage twice daily days 1-14): 1.5%
prevention of doxorubicin induced cardiomyopathy ([1]; mice): prevented doxorubicin induced cardiomyopathy
cardiac contractility, echocardiogram ([1]; study day 14, doxorubicin treated mice, versus oral vehicle): markedly greater cardiac contractility
ejection fraction ([2]; day 14, following the first cycle of doxorubicin): improvement of ejection fraction
atrial natriuretic factor, real-time PCR in cardiac tissue [2, 14]: lower levels of atrial natriuretic factor
expression of connective tissue growth factor, real-time PCR in cardiac tissue [2, 14]: lower levels of expression of connective tissue growth factor
lung weight [2, 14]: lesser lung weight
ventricular weight [2, 14]: lesser ventricular weight
total body weight ([2]; day 42, after two cycles of doxorubicin, versus vehicle treated mice): greater total body weight
ejection fraction ([2]; day 42, following the second cycle of doxorubicin): improvement of ejection fraction
inhibition of activity of cardiac 15-PGDH ([3]; 25 mpk oral, starting at 30 minutes, persisting for 3 hours after administration): approximately 80%
cardiac PGE2 ([3]; 6 hours after drug treatment): increased cardiac PGE2

COc1cccc2c1C(=O)c1c(O)c3c(c(O)c1C2=O)C[C@@](O)(C(=O)CO)C[C@@H]3O[C@H]1C[C@H](N)[C@H](O)[C@H](C)O1 [doxorubicin, reference compound]
decrease in ejection fraction ([1]; day 14, doxorubicin 15 mpk cumulative plus oral vehicle, compared to non-doxorubicin treated control mice): 10%
decrease in ejection fraction ([1]; day 28, doxorubicin 15 mpk cumulative plus oral vehicle, compared to non-doxorubicin treated control mice): 10%
DNA damage in cardiac myocytes, gamma-H2AX immunostaining [4]: induction of DNA damage

CCCC[S+]([O-])c1sc2nc(-c3cccs3)cc(-c3ccccc3)c2c1N (stereo not shown) [formula (IX)]
PGE2 production by cell lines [5]: increase PGE2 production
chemical stability in aqueous solutions [6]: chemically stable
chemical stability when incubated with hepatocyte extracts [7]: chemically stable
chemical stability when incubated with hepatocyte cell lines [8]: chemically stable
toxicity ([9]; IP into mice at 0.3 μmole/per mouse twice daily for 21 days): no toxicity
immediate toxicity over 24 hours ([9]; IP into mice at 0.6 μmole/per mouse): no immediate toxicity
immediate toxicity over 24 hours ([9]; IP into mice at 1.2 μmole/per mouse): no immediate toxicity

CCCC[S+]([O-])c1sc2nc(-c3nccs3)cc(-c3cnc(C)n3C)c2c1N (stereo not shown) [formula (X)]
concentration at which recombinant 15-PGDH is inhibited [10]: 3 nM
concentration at which PGE2 production by cell lines is increased [5]: 20 nM
chemical stability in aqueous solutions [6]: chemically stable
chemical stability when incubated with liver extracts [11]: chemically stable
chemical stability when incubated with liver extracts [12]: chemically stable
chemical stability when incubated with liver extracts [13]: chemically stable
immediate toxicity over 24 hours ([9]; IP into mice at 50 mg/kg body weight): no immediate toxicity
